Measured values as given in ChEMBL document CHEMBL5154722, “Identification of new potent anticancer derivatives through simplifying the core structure and modification on their 14- hydroxyl group from oridonin” (Eur J Med Chem, 2022).
Activity calls are given as the source filed them. No cut-off for these calls is given here.

Assays:
K562 [1] = experiment: Inhibition of MAPK signaling pathway in human K562 cells assessed as reduction in MEK level measured after 48 hrs by Western blot analysis; assay type: cell-based; settings: dose 25-100 nM, DDE = dose-dependent effect
K562 [2] = experiment: Induction of apoptosis in human K562 cells assessed as early apoptotic cells at 100 nM measured after 48 hrs by Annexin V-FITC/PI staining based flow cytometry method (reference value: 1.62%); assay type: functional
K562 [3] = experiment: Induction of apoptosis in human K562 cells assessed as early apoptotic cells at 50 nM measured after 48 hrs by Annexin V-FITC/PI staining based flow cytometry method (reference value: 1.62%); assay type: functional
K562 [4] = experiment: Induction of cell cycle arrest in human K562 cells assessed as downregulation of cyclin B1 measured after 48 hrs by Western blot analysis; assay type: functional, cell-based; settings: dose 25-100 nM, DDE = dose-dependent effect
K562 [5] = experiment: Induction of apoptosis in human K562 cells assessed as late apoptotic cells at 50 nM measured after 48 hrs by Annexin V-FITC/PI staining based flow cytometry method (reference value: 3.53%); assay type: functional
K562 [6] = experiment: Inhibition of MAPK signaling pathway in human K562 cells assessed as reduction in phosphorylated MEK measured after 48 hrs by Western blot analysis; assay type: cell-based; settings: dose 25-100 nM, DDE = dose-dependent effect
SW480 = experiment: Antiproliferative activity against human SW480 cells assessed as reduction in cell viability incubated for 72 hrs by MTT assay; assay type: functional, cell-based; settings: SW480, 72 h
[7] = Selectivity index, ratio of IC50 for human L02 cells to IC50 for human SMMC-7721 cells; assay type: toxicity; settings: L02 cells and SMMC-7721 cells, read-out: Ratio IC50
[8] = Toxicity in ICR mouse allografted with mouse H22 cells assessed as effect on liver morphology at 10 to 20 mg/kg, iv administered once a day for 21 days after 7 days of tumor implantation by H and E staining method; assay type: organism-based; settings: in vivo, 504 h, dose 10-20 mg/kg, time 21 day
K562 [9] = experiment: Induction of apoptosis in human K562 cells assessed as necrotic cells at 100 nM measured after 48 hrs by Annexin V-FITC/PI staining based flow cytometry method (reference value: 0.44%); assay type: functional
K562 [10] = experiment: Induction of apoptosis in human K562 cells assessed as reduction in phosphorylated Akt level measured after 48 hrs by Western blot analysis; assay type: functional, cell-based; settings: dose 25-100 nM, DDE = dose-dependent effect
K562 [11] = experiment: Induction of apoptosis in human K562 cells assessed as increase in Bax/Bcl-2 ratio at 25 to 100 nM measured after 48 hrs by Western blot analysis; assay type: functional, cell-based; settings: dose 25-100 nM
H22 [12] = experiment: Antitumor activity against mouse H22 cells allografted in ICR mouse assessed as reduction in tumor volume at 20 mg/kg, iv administered once a day for 21 days after 7 days of tumor implantation measured every two days; assay type: functional, organism-based; settings: time 21.0 day
K562 [13] = experiment: Induction of apoptosis in human K562 cells assessed as viable cells at 50 nM measured after 48 hrs by Annexin V-FITC/PI staining based flow cytometry method (reference value: 94.41%); assay type: functional; settings: read-out: Activity
H22 [14] = experiment: Antiproliferative activity against mouse H22 cells assessed as reduction in cell viability incubated for 72 hrs by MTT assay; assay type: functional, cell-based; settings: H22, 72 h
[15] = Toxicity in ICR mouse allografted with mouse H22 cells assessed as effect on spleen morphology at 10 to 20 mg/kg, iv administered once a day for 21 days after 7 days of tumor implantation by H and E staining method; assay type: organism-based; settings: in vivo, 504 h, dose 10-20 mg/kg, time 21 day
[16] = Toxicity in ICR mouse allografted with mouse H22 cells assessed as effect on lung morphology at 10 to 20 mg/kg, iv administered once a day for 21 days after 7 days of tumor implantation by H and E staining method; assay type: organism-based; settings: in vivo, 504 h, dose 10-20 mg/kg, time 21 day
[17] = Antiproliferative activity against human U-87 MG cells assessed as reduction in cell viability incubated for 72 hrs by MTT assay; assay type: functional, cell-based, U-87MG ATCC
K562 [18] = experiment: Induction of apoptosis in human K562 cells assessed as late apoptotic cells at 100 nM measured after 48 hrs by Annexin V-FITC/PI staining based flow cytometry method (reference value: 3.53%); assay type: functional
K562 [19] = experiment: Induction of apoptosis in human K562 cells assessed as reduction in phosphorylated mTOR level measured after 48 hrs by Western blot analysis; assay type: functional, cell-based; settings: dose 25-100 nM, DDE = dose-dependent effect
MDA-MB-231 = experiment: Antiproliferative activity against human MDA-MB-231 cells assessed as reduction in cell viability incubated for 72 hrs by MTT assay; assay type: functional, cell-based; settings: MDA-MB-231, 72 h
K562 [20] = experiment: Induction of apoptosis in human K562 cells assessed as reduction in phosphorylated ERK level measured after 48 hrs by Western blot analysis; assay type: functional, cell-based; settings: dose 25-100 nM, DDE = dose-dependent effect
K562 [21] = experiment: Induction of cell cycle arrest in human K562 cells assessed as accumulation of cells at S phase at 50 nM measured after 48 hrs by propidium iodide staining-based flow cytometric analysis (reference value: 37.29%); assay type: functional
K562 [22] = experiment: Induction of cell cycle arrest in human K562 cells assessed as accumulation of cells at S phase at 25 nM measured after 48 hrs by propidium iodide staining-based flow cytometric analysis (reference value: 37.29%); assay type: functional
K562 [23] = experiment: Induction of apoptosis in human K562 cells assessed as necrotic cells at 25 nM measured after 48 hrs by Annexin V-FITC/PI staining based flow cytometry method (reference value: 0.44%); assay type: functional
K562 [24] = experiment: Induction of cell cycle arrest in human K562 cells assessed as accumulation of cells at G2 phase at 100 nM measured after 48 hrs by propidium iodide staining-based flow cytometric analysis (reference value: 15.30%); assay type: functional
K562 [25] = experiment: Induction of apoptosis in human K562 cells assessed as viable cells at 100 nM measured after 48 hrs by Annexin V-FITC/PI staining based flow cytometry method (reference value: 94.41%); assay type: functional; settings: read-out: Activity
SMMC-7721 = experiment: Antiproliferative activity against human […] cells assessed as reduction in cell viability incubated for 72 hrs by MTT assay; assay type: functional, cell-based; settings: SMMC-7721, 72 h
MGC-803 = experiment: Antiproliferative activity against human MGC-803 cells assessed as reduction in cell viability incubated for 72 hrs by MTT assay; assay type: functional, cell-based; settings: MGC-803, 72 h
HeLa = experiment: Antiproliferative activity against human HeLa cells assessed as reduction in cell viability incubated for 72 hrs by MTT assay; assay type: functional, cell-based
[26] = Toxicity in ICR mouse allografted with mouse H22 cells assessed as effect on kidney morphology at 10 to 20 mg/kg, iv administered once a day for 21 days after 7 days of tumor implantation by H and E staining method; assay type: organism-based; settings: in vivo, 504 h, dose 10-20 mg/kg, time 21 day
K562 [27] = experiment: Induction of apoptosis in human K562 cells assessed as intracellular ROS generation at 100 uM measured after 48 hrs by DCFH-DA staining based flow cytometry method (reference value: 0.41%); assay type: functional
K562 [28] = experiment: Induction of cell cycle arrest in human K562 cells assessed as accumulation of cells at S phase at 100 nM measured after 48 hrs by propidium iodide staining-based flow cytometric analysis (reference value: 37.29%); assay type: functional
K562 [29] = experiment: Induction of apoptosis in human K562 cells assessed as late apoptotic cells at 25 nM measured after 48 hrs by Annexin V-FITC/PI staining based flow cytometry method (reference value: 3.53%); assay type: functional
K562 [30] = experiment: Induction of cell cycle arrest in human K562 cells assessed as downregulation of cdc2 measured after 48 hrs by Western blot analysis; assay type: functional, cell-based; settings: dose 25-100 nM, DDE = dose-dependent effect

**Q.** Which results are given for C=C1C(=O)[C@]23[C@H](OC(=O)/C=C/c4ccncc4)[C@H]1CC[C@H]2[C@]12CCCC(C)(C)[C@H]1[C@H](O)[C@@]3(O)OC2?
**A.** Activity (K562 [1]): Dde; Activity (K562 [2]): 42.81%; Activity (K562 [3]): 13.97%; Activity (K562 [4]): Dde; Activity (K562 [5]): 19.26%; Activity (K562 [6]): Dde; IC50 (SW480): 1030 nM; selectivity ratio [7]: 7.12; Activity [8]: Non-Toxic; Activity (K562 [9]): 3.25%; Activity (K562 [10]): Dde; Activity (K562 [11]): Active; Activity (H22 [12]): Active; viability at 0.05 µM (K562 [13]): 66.7%; IC50 (H22 [14]): 230 nM; Activity [15]: Non-Toxic; Activity [16]: Non-Toxic; IC50 [17]: 840 nM; Activity (K562 [18]): 20.92%; Activity (K562 [19]): Dde; IC50 (MDA-MB-231): 420 nM; Activity (K562 [20]): Dde; Activity (K562 [21]): 36.52%; Activity (K562 [22]): 38.36%; Activity (K562 [23]): 0.05%; Activity (K562 [24]): 30.83%; viability at 0.1 µM (K562 [25]): 33%; IC50 (SMMC-7721): 450 nM; IC50 (MGC-803): 610 nM; IC50 (HeLa): 1130 nM; Activity [26]: Non-Toxic; Activity (K562 [27]): 63.43%; Activity (K562 [28]): 35.31%; Activity (K562 [29]): 6.87%; Activity (K562 [30]): Dde
